# Results from US20220062319A1, “COMBINATION IN THE TREATMENT OF NONTUBERCULOUS MYCOBACTERIAL DISEASES” (priority 2019, published 2022).
# Like-named read-outs stand apart in the source and are kept apart here.
# What was measured:
# M. bovis = assay: microbe, parasite or virus in culture; assay type: cell-based; details: Mycobacterium tuberculosis variant bovis, read-out: MIC Median
# [1] = system: M. avium/M. intracellulare (MAC); assay: Bedaquiline MIC, MAC; assay type: cell-based
# M. kansasii = assay: Bedaquiline MIC, M. kansasii; assay type: cell-based; details: Mycobacterium kansasii, n=1, read-out: MIC Median
# M. marinum = assay: Bedaquiline MIC, M. marinum; assay type: cell-based; details: Mycobacterium marinum, n=1, read-out: MIC Median
# M. fortuitum = assay: Bedaquiline MIC, M. fortuitum; assay type: cell-based
# M. abscessus = assay: Bedaquiline MIC, M. abscessus; assay type: cell-based; details: Mycobacteroides abscessus
# M. smegmatis = assay: Bedaquiline MIC, M. smegmatis; assay type: cell-based
# M. ulcerans = assay: Bedaquiline MIC, M. ulcerans; assay type: cell-based; details: Mycobacterium ulcerans
# [2] = system: other mycobacterial species; assay: organism not typed; assay type: cell-based
# Mycobacterium xenopi = assay: REMA MIC, control strain; assay type: cell-based; details: 168 h, control strain M. xenopi (×1), 7H9, 7 days
# Mycobacterium avium = assay: REMA MIC and MBC, M. avium; assay type: cell-based; details: M. avium clinical isolates (×4), one line per isolate; for MIC: REMA
# [3] = system: Mycobacterium intracellulare; assay: REMA MIC and MBC, M. intracellulare; assay type: cell-based; details: M. intracellulare clinical isolates (×4), one line per isolate; for MIC: REMA
# Mycobacterium chimaera = assay: REMA MIC and MBC, M. chimaera; assay type: cell-based; details: Mycobacterium intracellulare, M. chimaera clinical isolates (×3), one line per isolate; for MIC: REMA
# Mycobacterium kansasii = assay: REMA MIC and MBC, M. kansasii; assay type: cell-based
# Mycobacterium simiae = assay: REMA MIC and MBC, M. simiae; assay type: cell-based; details: M. simiae clinical isolates (×2), one line per isolate; for MIC: REMA
# Mycobacterium marinum = assay: REMA MIC and MBC, M. marinum; assay type: cell-based
# [4] = system: NTM clinical isolates (slow grower mycobacteria); assay: MBC determination, NTM clinical isolates overall; assay type: cell-based; details: MBC = lowest concentration killing 100% of the bacteria
# Procedure: The MBC test allows determination of the minimum concentration of an agent necessary to achieve a bactericidal effect. The MBC was determined once the MIC was determined previously. To perform the MBC, the dilution representing the MIC and at least two of the more concentrated test product dilutions were plated and enumerated to determine viable CFU/ml. […] NTM clinical isolates used for this study were isolated from patients. In total, there were 18 isolates (in addition to the control strain): mycobacterium avium (x4 isolates), mycobacterium intracellulare (x4), mycobacterium chimaera (x3), mycobacterium kansasii (x2), mycobacterium ulcerans (x2), mycobacterium simiae (x2) and mycobacterium marinum (x1). […] MBC was considered the lowest concentration at which the bedaquiline kills 100% of the bacteria.
# [5] = in vivo; cited from earlier work
smiles,measurement,setting,value
"COc1nc2ccc(Br)cc2cc1[C@@H](c1ccccc1)[C@@](O)(CCN(C)C)c1cccc2ccccc12 [Bedaquiline, (alpha S, beta R)-6-bromo-alpha-[2-(dimethylamino)ethyl]-2-methoxy-alpha-1-naphthalenyl-beta-phenyl-3-quinolineethanol]",MIC,M. bovis,0.003 µg/mL
same,MIC,"[1]; Mycobacterium avium, n=7, read-out: MIC Median",0.01 µg/mL
same,MIC range,[1]; n=7,0.007 to 0.010 µg/mL
same,MIC,M. kansasii,0.003 µg/mL
same,MIC,M. marinum,0.003 µg/mL
same,MIC,"M. fortuitum; Mycolicibacterium fortuitum, n=5, read-out: MIC Median",0.01 µg/mL
same,MIC range,M. fortuitum; n=5,0.007 to 0.010 µg/mL
same,MIC,"M. abscessus; 1 isolate of M. abscessus, read-out: MIC",0.25 µg/mL
same,MIC,"M. abscessus; M. abscessus, n=1, read-out: MIC Median",0.25 µg/mL
same,MIC,"M. smegmatis; Mycolicibacterium smegmatis, n=7, read-out: MIC Median",0.007 µg/mL
same,MIC range,M. smegmatis; n=7,0.003 to 0.10 µg/mL
same,MIC,"M. ulcerans; 1 isolate of M. ulcerans, read-out: MIC",0.5 µg/mL
same,MIC,"M. ulcerans; M. ulcerans, n=1, read-out: MIC Median",0.5 µg/mL
same,MIC,[2],< 0.1 µg/mL
same,MIC,Mycobacterium xenopi,> 2 µg/mL
same,MBC,Mycobacterium avium,1 µg/mL
same,MIC,Mycobacterium avium,0.015 µg/mL
same,MIC,Mycobacterium avium; read-out: MIC,0.007 µg/mL
same,MBC,[3],2 µg/mL
same,MIC,[3],0.015 µg/mL
same,MIC,[3]; read-out: MIC,0.007 µg/mL
same,MBC,Mycobacterium chimaera,1 µg/mL
same,MIC,Mycobacterium chimaera,0.015 µg/mL
same,MIC,Mycobacterium chimaera; read-out: MIC,0.007 µg/mL
same,MIC,Mycobacterium kansasii,0.015 µg/mL
same,MBC,Mycobacterium simiae,1 µg/mL
same,MIC,Mycobacterium simiae,0.015 µg/mL
same,MIC,Mycobacterium simiae; read-out: MIC,0.03 µg/mL
same,MIC,Mycobacterium marinum,0.015 µg/mL
same,MBC,Mycobacterium marinum; M. marinum clinical isolate (×1),2 µg/mL
same,bactericidal activity,[4],bactericidal activity for the majority of clinical isolates tested
same,improvement of bioavailability with food,[5],approximately 2 fold
